Patent US7662832B2, “Pyrrolo[2,3-c]pyridine derivatives and processes for the preparation thereof” (priority 2004, dated 2010)
Where a name gives a salt, the structure may show the parent alone.

What follows are molecules tested against Proton Pump (H^+/K^+-ATPase) (Sus scrofa, UniProt P19156) (assay: Inhibitory effects on proton pump (H^+/K^+-ATPase) activity). Details: hog gastric vesicles; K^+ stimulated H^+/K^+-ATPase activity; 30 minutes at 37° C.
Proton Pump (H^+/K^+-ATPase), sequence (P19156 2-1034 limits assumed): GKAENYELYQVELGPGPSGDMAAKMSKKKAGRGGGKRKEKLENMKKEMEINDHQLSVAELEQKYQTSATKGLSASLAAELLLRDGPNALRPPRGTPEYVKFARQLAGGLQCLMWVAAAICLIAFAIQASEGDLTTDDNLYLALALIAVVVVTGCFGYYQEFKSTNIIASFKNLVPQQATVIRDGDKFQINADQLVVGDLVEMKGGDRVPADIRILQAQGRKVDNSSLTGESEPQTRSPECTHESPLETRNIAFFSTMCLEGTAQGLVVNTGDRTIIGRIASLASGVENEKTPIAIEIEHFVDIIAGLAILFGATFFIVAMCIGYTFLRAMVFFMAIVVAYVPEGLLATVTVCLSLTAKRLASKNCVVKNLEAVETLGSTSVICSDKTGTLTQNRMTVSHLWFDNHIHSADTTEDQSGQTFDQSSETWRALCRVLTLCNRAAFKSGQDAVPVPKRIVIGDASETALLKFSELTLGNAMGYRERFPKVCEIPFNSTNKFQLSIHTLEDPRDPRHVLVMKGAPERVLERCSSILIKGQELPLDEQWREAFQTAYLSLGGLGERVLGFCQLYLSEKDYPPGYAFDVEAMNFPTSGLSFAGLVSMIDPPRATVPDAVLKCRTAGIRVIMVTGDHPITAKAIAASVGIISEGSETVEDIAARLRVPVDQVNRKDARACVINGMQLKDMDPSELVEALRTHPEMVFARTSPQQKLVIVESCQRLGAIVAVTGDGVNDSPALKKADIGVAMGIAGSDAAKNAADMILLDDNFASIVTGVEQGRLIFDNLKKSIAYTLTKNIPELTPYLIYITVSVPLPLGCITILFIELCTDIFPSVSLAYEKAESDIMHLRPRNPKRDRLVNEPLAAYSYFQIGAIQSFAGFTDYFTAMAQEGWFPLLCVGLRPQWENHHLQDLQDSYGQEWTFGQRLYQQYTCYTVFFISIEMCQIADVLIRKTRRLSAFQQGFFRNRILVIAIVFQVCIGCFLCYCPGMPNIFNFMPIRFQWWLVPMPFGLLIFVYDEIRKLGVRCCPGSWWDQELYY
Proton Pump (H^+/K^+-ATPase), sequence (P18434 whole entry partner): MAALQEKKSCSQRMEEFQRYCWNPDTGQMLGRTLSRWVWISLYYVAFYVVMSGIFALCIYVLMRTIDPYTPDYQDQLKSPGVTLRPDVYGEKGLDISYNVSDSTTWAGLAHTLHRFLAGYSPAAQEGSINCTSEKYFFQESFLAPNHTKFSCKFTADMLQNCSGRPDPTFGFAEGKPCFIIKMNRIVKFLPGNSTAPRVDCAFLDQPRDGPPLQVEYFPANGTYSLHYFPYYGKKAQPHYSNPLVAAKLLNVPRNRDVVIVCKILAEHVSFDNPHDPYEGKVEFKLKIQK
Assay type: biochemical
Molecule Cc1c(C)n(Cc2cccc(Cl)c2)c2c(N3CCc4ccccc4C3)nc(-c3nnnn3C)cc12 [Example 853, 2-[1-(3-chlorobenzyl)-2,3-dimethyl-5-(1-methyl-1H-tetrazol-5-yl)-1H-pyrrolo[2,3-c]pyridin-7-yl]-1,2,3,4-tetrahydroisoquinoline] has an IC50 of 36 nM.
CCn1nnnc1-c1cc2c(C)c(C)n(Cc3cccc(Cl)c3)c2c(N2CCc3ccccc3C2)n1 [Example 854, 2-[1-(3-chlorobenzyl)-2,3-dimethyl-5-(1-ethyl-1H-tetrazol-5-yl)-1H-pyrrolo[2,3-c]pyridin-7-yl]-1,2,3,4-tetrahydroisoquinoline] showed an IC50 of 282 nM.
Cc1c(C)n(Cc2cccc(F)c2)c2c(N3CCc4ccccc4C3)nc(C(C)O)cc12 (centres unmarked) [Example 860, 1-[7-(3,4-dihydro-1H-isoquinolin-2-yl)-1-(3-fluorobenzyl)-2,3-dimethyl-1H-pyrrolo[2,3-c]pyridin-5-yl]-ethanol hydrochloride] showed an IC50 of 313 nM.
Molecule Cc1[nH]c2c(N3CCc4ccccc4C3)nc(C=O)cc2c1C [Example 862, 7-(3,4-dihydro-1H-isoquinolin-2-yl)-2,3-dimethyl-1H-pyrrolo[2,3-c]pyridin-5-carbaldehyde] has an IC50 of 403 nM.
Work on Cc1c(C)n(Cc2cccc(Cl)c2)c2c(N3CCc4ccccc4C3)nc(C=O)cc12 [Example 863, 1-(3-chlorobenzyl)-7-(3,4-dihydro-1H-isoquinolin-2-yl)-2,3-dimethyl-1H-pyrrolo[2,3-c]pyridin-5-carbaldehyde] yielded an IC50 of 109 nM.
Molecule Cc1c(C)n(Cc2cccc(F)c2)c2c(N3CCc4ccccc4C3)nc(C=O)cc12 [Example 864, 7-(3,4-dihydro-1H-isoquinolin-2-yl)-1-(3-fluorobenzyl)-2,3-dimethyl-1H-pyrrolo[2,3-c]pyridin-5-carbaldehyde hydrochloride] has an IC50 of 213 nM.
Cc1c(C)n(Cc2cccc(F)c2)c2c(N3CCc4ccccc4C3)nc(CNc3ccc(F)cc3)cc12 [Example 866, N-[7-(3,4-dihydro-1H-isoquinolin-2-yl)-1-(3-fluorobenzyl)-2,3-dimethyl-1H-pyrrolo[2,3-c]pyridin-5-ylmethyl]-4-fluorophenylamine hydrochloride] was tested, and the IC50 was 1030 nM.
Molecule Cc1ccc(CNCc2cc3c(C)c(C)n(Cc4cccc(F)c4)c3c(N3CCc4ccccc4C3)n2)cc1 [Example 867, N-[7-(3,4-dihydro-1H-isoquinolin-2-yl)-1-(3-fluorobenzyl)-2,3-dimethyl-1H-pyrrolo[2,3-c]pyridin-5-ylmethyl]-4-methylbenzylamine hydrochloride] has an IC50 of 412 nM.
With CCNCc1cc2c(C)c(C)n(Cc3cccc(F)c3)c2c(N2CCc3ccccc3C2)n1 [Example 868, N-[7-(3,4-dihydro-1H-isoquinolin-2-yl)-1-(3-fluorobenzyl)-2,3-dimethyl-1H-pyrrolo[2,3-c]pyridin-5-ylmethyl]-ethylamine hydrochloride] the IC50 was 39 nM.
For Cc1c(C)n(Cc2cccc(F)c2)c2c(N3CCc4ccccc4C3)nc(CNC(C)(C)C)cc12 [Example 869, N-[7-(3,4-dihydro-1H-isoquinolin-2-yl)-1-(3-fluorobenzyl)-2,3-dimethyl-1H-pyrrolo[2,3-c]pyridin-5-ylmethyl]-tert-butylamine hydrochloride], the IC50 was 40 nM.
For Cc1c(C)n(Cc2cccc(F)c2)c2c(N3CCc4ccccc4C3)nc(CNC3CCC3)cc12 [Example 870, N-[7-(3,4-dihydro-1H-isoquinolin-2-yl)-1-(3-fluorobenzyl)-2,3-dimethyl-1H-pyrrolo[2,3-c]pyridin-5-ylmethyl]-cyclobutylamine hydrochloride], the IC50 was 43 nM.
In the case of Cc1c(C)n(Cc2cccc(F)c2)c2c(N3CCc4ccccc4C3)nc(CNC3CC3)cc12 [Example 871, N-[7-(3,4-dihydro-1H-isoquinolin-2-yl)-1-(3-fluorobenzyl)-2,3-dimethyl-1H-pyrrolo[2,3-c]pyridin-5-ylmethyl]-cyclopropylamine hydrochloride], the IC50 is reported as 37 nM.
In the case of Cc1c(C)n(Cc2cccc(F)c2)c2c(N3CCc4ccccc4C3)nc(CN3CCOCC3)cc12 [Example 872, 2-[1-(3-fluorobenzyl)-2,3-dimethyl-5-(morpholin-4-ylmethyl)-1H-pyrrolo[2,3-c]pyridin-7-yl]-1,2,3,4-tetrahydroisoquinoline hydrochloride], the IC50 is reported as 43 nM.
In the case of Cc1c(C)n(Cc2cccc(F)c2)c2c(N3CCc4ccccc4C3)nc(CN3CCN(C)CC3)cc12 [Example 873, 2-[1-(3-fluorobenzyl)-2,3-dimethyl-5-(4-methylpiperazin-1-ylmethyl)-1H-pyrrolo[2,3-c]pyridin-7-yl]-1,2,3,4-tetrahydroisoquinoline hydrochloride], the IC50 is reported as 26 nM.
With Cc1c(C)n(Cc2cccc(Cl)c2)c2c(N3CCc4ccccc4C3)nc(CN3CCN(C)CC3)cc12 [Example 875, 2-[1-(3-chlorobenzyl)-2,3-dimethyl-5-(4-methylpiperazin-1-ylmethyl)-1H-pyrrolo[2,3-c]pyridin-7-yl]-1,2,3,4-tetrahydroisoquinoline hydrochloride] the IC50 was 258 nM.
Work on COc1cccc(Cn2c(C)c(C)c3cc(CN4CCN(C)CC4)nc(N4CCc5ccccc5C4)c32)c1 [Example 876, 2-[1-(3-methoxybenzyl)-2,3-dimethyl-5-(4-methylpiperazin-1-ylmethyl)-1H-pyrrolo[2,3-c]pyridin-7-yl]-1,2,3,4-tetrahydroisoquinoline hydrochloride] yielded an IC50 of 99 nM.
Work on Cc1cccc(Cn2c(C)c(C)c3cc(CN4CCN(C)CC4)nc(N4CCc5ccccc5C4)c32)c1 [Example 878, 2-[2,3-dimethyl-1-(3-methylbenzyl)-5-(4-methylpiperazin-1-ylmethyl)-1H-pyrrolo[2,3-c]pyridin-7-yl]-1,2,3,4-tetrahydroisoquinoline hydrochloride] yielded an IC50 of 152 nM.
C=CCn1c(C)c(C)c2cc(CN3CCN(C)CC3)nc(N3CCc4ccccc4C3)c21 [Example 879, 2-[1-allyl-2,3-dimethyl-5-(4-methylpiperazin-1-ylmethyl)-1H-pyrrolo[2,3-c]pyridin-7-yl]-1,2,3,4-tetrahydroisoquinoline hydrochloride] showed an IC50 of 50 nM.
Cc1c(C)n(Cc2ccccc2)c2c(N3CCc4ccccc4C3)nc(CN3CCN(C)CC3)cc12 [Example 883, 2-[1-benzyl-2,3-dimethyl-5-(4-methylpiperazin-1-ylmethyl)-1H-pyrrolo[2,3-c]pyridin-7-yl]-1,2,3,4-tetrahydroisoquinoline hydrochloride] gave an IC50 of 87 nM.
In the case of Cc1c(C)n(Cc2cccc(F)c2)c2c(N3CCc4ccccc4C3)nc(CC#N)cc12 [Example 884, [7-(3,4-dihydro-1H-isoquinolin-2-yl)-1-(3-fluorobenzyl)-2,3-dimethyl-1H-pyrrolo[2,3-c]pyridin-5-yl]-acetonitrile hydrochloride], the IC50 is reported as 216 nM.
In the case of Cc1c(C)n(Cc2cccc(F)c2)c2c(N3CCc4ccccc4C3)nc(CF)cc12 [Example 885, 2-[1-(3-fluorobenzyl)-5-fluoromethyl-2,3-dimethyl-1H-pyrrolo[2,3-c]pyridin-7-yl]-1,2,3,4-tetrahydroisoquinoline hydrochloride], the IC50 is reported as 217 nM.
Work on Cc1c(C)n(Cc2ccccc2)c2c(NCc3ccc(F)cc3)nc(C(=O)N3CCN(C)CC3)cc12 [Example 906, [1-benzyl-7-(4-fluorobenzylamino)-2,3-dimethyl-1H-pyrrolo[2,3-c]pyridin-5-yl]-(4-methylpiperazin-1-yl)-methanone hydrochloride] yielded an IC50 of 31 nM.
Work on CCN1CCN(C(=O)c2cc3c(C)c(C)n(Cc4ccccc4)c3c(NCc3ccc(F)cc3)n2)CC1 [Example 907, [1-benzyl-7-(4-fluorobenzylamino)-2,3-dimethyl-1H-pyrrolo[2,3-c]pyridin-5-yl]-(4-ethylpiperazin-1-yl)-methanone hydrochloride] yielded an IC50 of 32 nM.
For Cc1c(C)n(Cc2ccccc2)c2c(NCc3ccc(F)cc3)nc(C(=O)N3CCCCC3)cc12 [Example 908, [1-benzyl-7-(4-fluorobenzylamino)-2,3-dimethyl-1H-pyrrolo[2,3-c]pyridin-5-yl]-(piperidin-1-yl)-methanone hydrochloride], the IC50 was 384 nM.
With Cc1c(C)n(Cc2ccccc2)c2c(NCc3ccc(F)cc3)nc(C(=O)N3CCOCC3)cc12 [Example 909, [1-benzyl-7-(4-fluorobenzylamino)-2,3-dimethyl-1H-pyrrolo[2,3-c]pyridin-5-yl]-(morpholin-4-yl)-methanone hydrochloride] the IC50 was 90 nM.
Work on Cc1[nH]c2c(NCc3ccc(F)cc3)nc(C#N)cc2c1C [Example 910, 7-(4-fluorobenzylamino)-2,3-dimethyl-1H-pyrrolo[2,3-c]pyridin-5-carbonitrile hydrochloride] yielded an IC50 of 393 nM.
In the case of “[1-allyl-7-(3,4-dihydro-1H-isoquinolin-2-yl)-2,3-dimethyl-1H-pyrrolo[2,3-c]pyridin-5-yl]-methylamine hydrochloride [Example 887]”, the IC50 is reported as 9 nM.
“[7-(3,4-dihydro-1H-isoquinolin-2-yl)-1-(3-fluorobenzyl)-2,3-dimethyl-1H-pyrrolo[2,3-c]pyridin-5-yl]-methylamine hydrochloride [Example 888]” gave an IC50 of 20 nM.

Each molecule was assayed on basal gastric acid secretion (assay: Inhibitory effects on basal gastric acid secretion in pylorus-ligated rats (Shay's rat model)). Details: oral, one hour before pylorus ligation, total acid output 5 hours after ligation.
Assay type: in vivo, Sprague Dawley (SD) rats
Protocol: Inhibitory effects of the compounds of the present invention on basal gastric acid secretion were performed according to Shay's rat model (Shay, H., et al., 1945, gastroenterology, 5, 43-61). Male Sprague Dawley (SD) rats (200±10 g body weight) were divided into […] (n=5) and fasted for 24 hours with free access to water. Control group was orally administered with 0.5% methylcellulose alone and the other groups were orally administered with test compounds suspended in 0.5% methylcellulose solution at doses of 1, 3 and 10 mg/kg/5 ml one hour before pylorus ligation.
Under ether anesthesia, the abdomens of the rats were incised and then the pylorus was ligated. 5 hours after ligation, the animals were sacrificed, and the gastric contents were collected. The collected contents were centrifuged at 1,000×g for 10 minutes to obtain the gastric juice. Total acid output was measured by 0.01N NaOH volume (ueq/ml) for automatic titration of the gastric juice to pH 7.0 and the ED50s of test compounds were calculated using the Litchfield-Wilcoxon method. % inhibitory activity was calculated from the following equation and the results are shown in Table 2. % inhibitory activity of test compound=(total acid output of control group−total acid output of the group treated with test compounds)/total acid output of control group×100
Work on Cc1c(C)n(Cc2cccc(F)c2)c2c(NCc3ccc(F)cc3)nccc12.Cl [Example 207, 1-(3-fluorobenzyl)-7-(4-fluorobenzylamino)-2,3-dimethyl-1H-pyrrolo[2,3-c]pyridine hydrochloride] yielded an ED50 of 8.3 mg/kg.
